# Test results from US20020106347A1, “Cytokines and their use in treatment and/or prophylaxis of breast cancer” (priority 1995, published 2002).
# Entries after “also recorded” stand apart in the source; their conditions may differ.
# How the values were obtained:
# MCF-7 cells [1] = assay: Cell cycle analysis by flow cytometry (DNA content); assay type: cell-based, human; details: MCF-7, serum-free medium
# Procedure: FIG. 9 is a graphical representation showing the effect of OSM on cell cycle. MCF-7 cells treated with OSM while growing in serum-free medium were harvested by treatment with trypsin and stained for DNA content analysis by flow cytometry. Cell cycle distributions were calculated by computer fitting of the resultant histograms. […] FIG. 10(b) represents data from 2 experiments (performed in triplicate) where the number of cells in S phase are represented as a percentage of the corresponding untreated control value.
# Cell cycle distributions were calculated by computer fitting of the resultant histograms. Results represent the combined data from 3 experiments (performed in triplicate) where the number of cells in S phase are represented as a percentage of the corresponding untreated control value.
# Cell cycle analysis was performed in serum-free medium (Sigma). Analysis was performed 2-4 days after cells were washed and re-cultured in serum-free medium. Growth factors were added to the medium as indicated. At the times shown thereafter, cells were harvested with 0.05% (w/v) trpsin-0.02% (w/v) EDTA. The cells were resuspended in serum-free tissue culture medium and after cell counting using a hemacytometer, stained for later DNA analysis by the addition of 0.25% prothidium iodide in the presence of 0.2% (v/v) Triton X-100. DNA histograms were obtained by using a FACScan flow cytometer (Becton Dickinson Immunocytochemistry Systems) and the cell cycle phase distribution was estimated by using the manufacturer's DNA analysis software (Cellfit). Each histogram contained 10,000 events.
# MDA-MB-231 cell line = assay: Receptor binding of radioiodinated ligand to MDA-MB-231 cells, Scatchard analysis; set-up: species or system human; details: for specific binding(cpm)/10^6 cells: MDA-MB-231, 125I-ligand, room temperature 60 min
# Procedure: FIG. 20 is a graphical representation showing Scatchard analyses of the saturation isotherms of LIF and OSM binding to breast cancer cell lines. Cells were incubated with various concentrations of labelled or unlabelled ligand in the presence or absence of a 10-100 fold excess of unlabelled ligand. After 18 hr on ice, bound and free ligand were separated by centrifugation through bovine calf serum. Bound and free ^125I-ligand was quantitated in a γ-counter and the data was depicted as a Scatchard transformation. Data was normalised for cell number and is shown as binding to 10^6 cells. A) Saturation isotherm of LIF binding to the MCF-7 cell line. […] B) Saturation isotherm of OSM binding to the MDA-MB-231 cell line.
# Receptor binding assays were performed using radioiodinated LIF (^125I-LIF) and OSM (^125I-OSM). The radioiodination of LIF and OSM and binding assays were essentially performed as previously described (Hilton et al., 1991; Hilton and Nicola, 1992). Briefly, 50 μl aliquots containing 1×10^7 cells, suspended in RPMI-1640 medium containing 10% (v/v) BCS, were placed in Falcon tubes with 40 μl of the respective radioiodinated ligand at 1×10^5 cpm per 40 μl, with or without greater than a 40-fold excess of unlabelled ligand. Incubation was carried out at room temperature for 60 min and cells were resuspended and layered over 180 μl of (v/v) BCS. Cell associated and free radioiodinated ligand were separated by centrifugation. The pellet and supernatant were subsequently counted in a γ-counter. Specific binding was estimated by subtraction of non specific binding from binding with ^125I-ligand (total binding). Number of cell surface receptors and dissociation constant were calculated by Scatchard analysis.
# MCF-7 cells [2] = assay: Proliferation of MCF-7 cells in monolayer (liquid) culture, viable cell count; assay type: cell-based, human; details: for mean inhibition of cell proliferation: MCF-7, 7 days exposure, LIF 1000 U/ml, IL-6 100 ng/ml, OSM 10 ng/ml, IL-11 100 ng/ml, vs untreated control; for effect on cell proliferation (in words): MCF-7 / MCF-7M, up to 1 week culture
# Procedure: FIGS. 2A, B and C are graphical representations of MCF-7M cells in liquid culture. 10^4 MCF-7M cells were cultured in 500 μl RPMI/10% bovine calf serum (BCS) (v/v) containing the indicated concentration of each of the growth factors (OSM or LIF). After 7 days culture viable cells were counted using a hemacytometer. Cell numbers reported here are the result of one experiment, each performed in triplicate.
# FIG. 7 is a graphical representation showing inhibition of proliferation of MCF-7 cells by Oncostatin M (OSM). 10^4 MCF-7 cells were cultured in 500 μl RPMI/10% (v/v) BCS with the indicated concentrations of OSM. At 2, 4 and 6 days, viable cells were counted using a hemacytometer. Results are from 3 experiments, each performed in triplicate.
# FIG. 8 is a graphical representation showing that MCF-7 cells are inhibited in a dose-dependent fashion by Oncostatin M (OSM). 10^4 MCF-7 cells were cultured in 500 μl RPMI/10% (v/v) BCS with the indicated concentrations of OSM. After 7 days viable cells were counted, and cell number expressed as a percentage of the corresponding untreated control value.
# FIG. 16 is a graphical representation showing inhibition of MCF-7 cells after 7 days in suspension culture. 10^4MCF-7 cells were cultured in 500 μl RPMI/10% (v/v) BCS with the indicated growth factor. After 7 days viable cells were counted using a hemacytometer. Results are from 9 experiments, each performed in triplicate.
# (§1) Proliferation of the cell lines was measured in monolayer culture in 24 well Costar cluster plates. Cells were plated at an initial density of 10 000 cells/ml and cultured in 500 μl RPMI-1640 supplemented with 10% (v/v) (v/v) BCS and with each growth factor as indicated (LIF, 1000 U/ml; IL-6, 100 ng/ml; OSM, 10 ng/ml; CNTF, 10 ng/ml; IL-11, 100 ng/ml). These concentrations are maximally active in other systems (Nandurkar et al., 1996; Hilton et al., 1994; Zhang et al., 1994; Tanigawa et al., 1995). After 7 or 10 days at 37° C. in a fully humidified atmosphere containing 10% (v/v) CO2 in air, cells were trypsinised and counted using a haemocytometer and an inverted microscope. Cell viability was assessed using eosin exclusion. Results were expressed as a percentage of the corresponding untreated control value for that experiment.
# ER in MCF-7 cells = assay: ER expression by antibody staining on chamber slides; assay type: cell-based, human; details: MCF-7, 6 days
# Procedure: (§2) MCF-7 cells were grown on chamber slides for 6 days in RPMI/10% (v/v) BCS with the following growth factors, prior to being stained with an antibody specific for ER. […] Cells stained brown indicate ER positivity.
# as §2
# [3] = test system: four breast cancer cell lines; assay: Proliferation of four breast cancer cell lines in monolayer culture (summary); assay type: cell-based, human
# Procedure: as §1
# Experiments were performed to determine whether these morphological changes were associated with alterations in cell growth. The proliferation of four breast cancer cell lines was examined in monolayer cultures containing either IL-6, LIF, OSM, CNTF or IL-11.
Substance,effect on S phase fraction (in words) (MCF-7 cells [1]),effect on percentage of cells in G1 phase (in words) (MCF-7 cells [1]),number of cells in S phase as percentage of control cells (MCF-7 cells [1]; by 24 hour) [%],percentage of cells in S phase following treatment (MCF-7 cells [1]; decreases from approximately 15% over a 72 hour time period) [%],specific binding(cpm)/10^6 cells (MDA-MB-231 cell line),"Kd (MDA-MB-231 cell line; MDA-MB-231, Scatchard analysis, read-out: dissociation constant) [nM]","inhibition of cell proliferation, up to (maximum observed) (MCF-7 cells [2]; MCF-7, 7 days exposure to OSM, 9 experiments)",mean inhibition of cell proliferation (MCF-7 cells [2]) [%],effect on cell proliferation (in words) (MCF-7 cells [2]),cells staining very weakly for ER (ER in MCF-7 cells) [%],cell lines with significant inhibition of cellular proliferation [3]
oncostatin M [OSM],marked decrease in the S phase cells; also recorded: decreased,concomitant increase in the percentage of cells in G1 phase,50,~8,2980 +/− 460 cpm,0.092,up to 94%,85,inhibition of cell proliferation; also recorded: inhibition of cellular proliferation,50,¾
Leukemia Inhibitory Factor [LIF],–,–,–,–,450 +/− 120 cpm,–,–,37,induced inhibition,–,¼
